Reference: US9918948B2, “Methods and compositions for treating symptoms associated with post-traumatic stress disorder using cyclobenzaprine” (TONIX PHARMA HOLDINGS LIMITED, priority 2009, dated 2018)
Read-outs that look alike come from different tables or passages of the source.

Experiments:
fibromyalgia patients = details: 120 fibromyalgia patients, 10 to 40 mg, 12-week period; cited from earlier work
PTSD symptoms [1] = details: 1 to 4 mg orally at bedtime, alone or with sertraline or prazosin; PTSD present for greater than three months
Description: In patients with well-established PTSD that has been present for greater than three months. At this point the usual natural history of the disease has progressed to the point where patients typically experience recurrent nightmares and daytime flashbacks associated with highly vivid memories of the traumatic event. […] In addition patients at this stage in the evolution of their disorder have a constellation of daytime symptoms consisting of hyperarousal, hypervigilance, exaggerated startle, and other signs of overactive vigilance behaviors. Also, at this point patients begin to engage in avoidant behaviors such that they actively avoided people and circumstances that might trigger memories of the traumatic event. Lastly, patients begin to experience daytime reexperiencing of their traumatic events in the form of flashbacks. […] These include hyperarousal, hypervigilance, exaggerated startle, and avoidant behavior.

PTSD symptoms [2] = details: 1 to 4 mg orally at bedtime, alone or with sertraline or prazosin, started within one week of the trauma
PTSD symptoms [3] = details: 1 to 4 mg orally at bedtime, alone or with sertraline or prazosin; one to three months after the trauma
Description: At this point the usual natural history of the disease has progressed to the point where patients typically experience recurrent nightmares associated with their traumatic events. […] In addition patients at this stage in the evolution of their disorder have a constellation of daytime symptoms consisting of hyperarousal, hypervigilance, exaggerated startle, and other signs of overactive vigilance behaviors. Also, at this point patients begin to engage in avoidant behaviors such that they actively avoided people and circumstances that might trigger memories of the traumatic event. Lastly, patients begin to experience daytime reexperiencing of their traumatic events in the form of flashbacks. […] These include hyperarousal, hypervigilance, exaggerated startle, and avoidant behavior.

[4] = tested on: sleep disturbance in PTSD; details: administered at bedtime; cited from earlier work

| Structure (SMILES) | pain score (fibromyalgia patients) | quality of sleep (fibromyalgia patients) | total number of tender points and muscle tightness (fibromyalgia patients) | daytime symptoms not associated with sleep (hyperarousal, hypervigilance, exaggerated startle, avoidant behavior) (PTSD symptoms [1]) | sleep associated symptomatology (nightmares, distress, insomnia, daytime fatigue, cognitive function) (PTSD symptoms [1]) | avoiding behavior or hyperarousal symptoms (PTSD symptoms [2]) | daytime fatigue compared to untreated patients (PTSD symptoms [2]) | sleep quality compared to untreated patients (PTSD symptoms [2]) | frequency of nightmares or flashbacks (PTSD symptoms [2]; three-month interval) | daytime symptoms not associated with sleep (hyperarousal, hypervigilance, exaggerated startle, avoidant behavior) (PTSD symptoms [3]) | sleep associated symptomatology (nightmares, distress, insomnia, daytime fatigue, cognitive function) (PTSD symptoms [3]) | sleep [4] |
| --- | --- | --- | --- | --- | --- | --- | --- | --- | --- | --- | --- | --- |
| CN(C)CCC=C1c2ccccc2C=Cc2ccccc21 [cyclobenzaprine, 3-(5H-dibenzo[a,d]cyclohepten-5-ylidene)-N,N-dimethyl-1-propanamine] | significantly improved | significantly improved | reduction | greatly reduced or eliminated | significant improvements | No avoiding behavior or hyperarousal symptoms develop | diminished | substantially better in quality | declines eventually approaching zero | greatly reduced or eliminated | significant improvements | – |
| COc1cc2nc(N3CCN(C(=O)c4ccco4)CC3)nc(N)c2cc1OC [prazosin] | – | – | – | – | – | – | – | – | – | – | – | improves sleep |
